Earlier results as cited in patent publication US20110287117A1, “Adjuvant Therapy in the Treatment of Gouty Arthritis” (UNIVERSITY OF MEDICINE AND DENTISTRY OF NEW JERSEY, priority 2009, published 2011).

Conditions: in vivo

recombinant IL-6: recombinant interleukin 6 administered in a cited study
serum SU level: lowered
urinary secretion of uric acid: increased
